Experiments:
Test in all cases: relative viability (nuclei count vs DMSO), 5 days (fraction); higher = more cells survive
Olaparib + Vorinostat = compound: O=C(c1cc(Cc2n[nH]c(=O)c3ccccc23)ccc1F)N1CCN(C(=O)C2CC2)CC1 [Olaparib] + O=C(CCCCCCC(=O)Nc1ccccc1)NO [Vorinostat] (partner 1 µM)
Method in brief: (§1)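 The day after seeding in 1536-well plates, lung cancer cell lines were treated by pin tool with a single drug, or with a fixed anchor-drug dose together with five library-drug doses (not always all listed) in √10 steps. After 5 days, a combined fix-and-stain solution (final 0.05% Triton X-100, 1% formaldehyde, 1 ug/ml Hoechst) was added. Nuclei counted on 4× images gave relative viability as treated counts over vehicle counts, reported as the median of duplicate plates.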

Carfilzomib + Phenformin = compound: CC(C)C[C@H](NC(=O)[C@H](CCc1ccccc1)NC(=O)CN1CCOCC1)C(=O)N[C@@H](Cc1ccccc1)C(=O)N[C@@H](CC(C)C)C(=O)[C@@]1(C)CO1 [Carfilzomib] + N=C(N)NC(=N)NCCc1ccccc1 [Phenformin] (partner 250 µM)
Method in brief: as §1

Olaparib + Pemetrexed = compound: O=C(c1cc(Cc2n[nH]c(=O)c3ccccc23)ccc1F)N1CCN(C(=O)C2CC2)CC1 [Olaparib] + Nc1nc2[nH]cc(CCc3ccc(C(=O)N[C@@H](CCC(=O)O)C(=O)O)cc3)c2c(=O)[nH]1 [Pemetrexed] (partner 0.2 µM)
Method in brief: as §1

Olaparib + Luminespib = compound: O=C(c1cc(Cc2n[nH]c(=O)c3ccccc23)ccc1F)N1CCN(C(=O)C2CC2)CC1 [Olaparib] + CCNC(=O)c1noc(-c2cc(C(C)C)c(O)cc2O)c1-c1ccc(CN2CCOCC2)cc1 [Luminespib] (partner 0.01 µM)
Method in brief: as §1

Carfilzomib + Tozasertib = compound: CC(C)C[C@H](NC(=O)[C@H](CCc1ccccc1)NC(=O)CN1CCOCC1)C(=O)N[C@@H](Cc1ccccc1)C(=O)N[C@@H](CC(C)C)C(=O)[C@@]1(C)CO1 [Carfilzomib] + Cc1cc(Nc2cc(N3CCN(C)CC3)nc(Sc3ccc(NC(=O)C4CC4)cc3)n2)n[nH]1 [Tozasertib] (partner 0.1 µM)
Method in brief: as §1

Cell Line: NCI-H1793
- relative viability (Olaparib + Vorinostat; first compound 0.08 µM): 0.841
- relative viability (Olaparib + Vorinostat; first compound 0.253 µM): 0.707
- relative viability (Olaparib + Vorinostat; first compound 2.53 µM): 0.683
- relative viability (Olaparib + Vorinostat; first compound 8 µM): 0.679
- relative viability (Carfilzomib + Phenformin; first compound 0.003162 µM): 0.404
- relative viability (Carfilzomib + Phenformin; first compound 0.01 µM): 0.296
- relative viability (Carfilzomib + Phenformin; first compound 0.03162 µM): 0.407
- relative viability (Carfilzomib + Phenformin; first compound 0.1 µM): 0.261
- relative viability (Olaparib + Pemetrexed; first compound 0.08 µM): 0.647
- relative viability (Olaparib + Pemetrexed; first compound 0.253 µM): 0.652
- relative viability (Olaparib + Pemetrexed; first compound 2.53 µM): 0.841
- relative viability (Olaparib + Pemetrexed; first compound 8 µM): 0.79
- relative viability (Olaparib + Luminespib; first compound 0.08 µM): 0.144
- relative viability (Olaparib + Luminespib; first compound 0.253 µM): 0.225
- relative viability (Olaparib + Luminespib; first compound 2.53 µM): 0.138
- relative viability (Olaparib + Luminespib; first compound 8 µM): 0.149
- relative viability (Carfilzomib + Tozasertib; first compound 0.003162 µM): 0.469
- relative viability (Carfilzomib + Tozasertib; first compound 0.01 µM): 0.327
- relative viability (Carfilzomib + Tozasertib; first compound 0.03162 µM): 0.292
- relative viability (Carfilzomib + Tozasertib; first compound 0.1 µM): 0.123

— the supplement of paper PMC10307832
